Marks after values point to notes of the source that are not given here.
How the values were obtained:
[1] = tested on: intracellular APEC O2 in HD11 cells; experiment: Intracellular survival assay (cidal SMs); settings: O2, HD11, 6 h treatment; superscript = multiple of MIC
[2] = tested on: intracellular APEC O1 in THP-1 cells; experiment: Intracellular survival assay (cidal SMs); settings: O1, THP-1, 6 h treatment; superscript = multiple of MIC
[3] = tested on: intracellular APEC O78 in HD11 cells; experiment: Intracellular survival assay (cidal SMs); settings: O78, HD11, 6 h treatment; superscript = multiple of MIC
APEC O2 = format: cell-based, avian pathogenic Escherichia coli (APEC); settings: APEC O2, M63 media; MIC/MBC
APEC O18 = format: cell-based, avian pathogenic Escherichia coli (APEC); settings: APEC O18, M63 media; MIC/MBC
APEC O15 = format: cell-based, avian pathogenic Escherichia coli (APEC); settings: APEC O15, M63 media; MIC/MBC
[4] = tested on: intracellular APEC O2 in Caco-2 cells; experiment: Intracellular survival assay (cidal SMs); settings: O2, Caco-2, 6 h treatment; superscript = multiple of MIC
APEC O78 [5] = experiment: Loss of 260/280 nm absorbing materials assay; format: cell-based, avian pathogenic Escherichia coli (APEC); settings: 2X MBC, 1 h, *P<0.05 vs DMSO
APEC O2-211 = format: cell-based, avian pathogenic Escherichia coli (APEC); settings: APEC O2-211, M63 media; MIC/MBC
APEC O78 [6] = experiment: Confocal microscopy bacterial cytological profiling; format: cell-based, avian pathogenic Escherichia coli (APEC); settings: 2X MBC
Protocol: Confocal and scanning electron microscopy. Confocal microscopy was used for bacterial cytological profiling (BCP) to identify the cellular pathways targeted by SMs as described previously. […] After incubation, treated cultures were centrifuged, washed, and resuspended in 100 μL PBS. […] Cultures were then centrifuged, washed, and resuspended in PBS to 1⁄10th volume of the original cultures.

APEC O109 = format: cell-based, avian pathogenic Escherichia coli (APEC); settings: APEC O109, M63 media; MIC/MBC
[7] = tested on: intracellular APEC O1 in Caco-2 cells; experiment: Intracellular survival assay (cidal SMs); settings: O1, Caco-2, 6 h treatment; superscript = multiple of MIC
APEC O115 = format: cell-based, avian pathogenic Escherichia coli (APEC); settings: APEC O115, M63 media; MIC/MBC
[8] = tested on: intracellular APEC O78, O2, and O1 in infected Caco-2, HD11, and THP1 cells; experiment: Intracellular survival assay (cidal SMs), summary over serotypes and cells; settings: overall ranking
[9] = tested on: biofilm embedded APEC O78; experiment: MBEC High-throughput assay; format: cell-based, avian pathogenic Escherichia coli (APEC); settings: biofilm embedded APEC O78; superscript = multiple of MIC (footnote)
Protocol: Effect against biofilm embedded APEC. The effect of cidal SMs against biofilm embedded APEC was determined using MBEC High-throughput (HTP) assay (Innovotech Inc., AB, Canada). Briefly, 150 µL of 0.05 OD600 adjusted APEC O78 culture was aliquoted into each well of the MBEC device containing polystyrene pegs and incubated at 37° C. for 36 h in LB media under stationary condition. […] The plate was incubated in the dark for 18 h at 37° C. with rotation at 110 rpm. The DMSO (1%) and M63 media were used as positive and negative controls, respectively. Following incubation, MIC of SMs in challenged plate was recorded. The SMs exposed pegs were then transferred to a new 96-well plate containing PBS and sonicated for 30 mins (Aquasonic ultrasonic cleaner, VWR) to disrupt the biofilm. […] Biofilm embedded APEC bacteria were enumerated and minimum biofilm eradication concentration (MBEC) of […] were determined. Two independent experiments were conducted.

[10] = tested on: intracellular APEC O78 in Caco-2 cells; experiment: Intracellular survival assay (cidal SMs); settings: O78, Caco-2, 6 h treatment; superscript = multiple of MIC
APEC O8 = format: cell-based, avian pathogenic Escherichia coli (APEC); settings: APEC O8, M63 media; MIC/MBC
APEC O35 = format: cell-based, avian pathogenic Escherichia coli (APEC); settings: APEC O35, M63 media; MIC/MBC
APEC O1 = format: cell-based, avian pathogenic Escherichia coli (APEC); settings: APEC O1, M63 media; MIC/MBC
[11] = tested on: intracellular APEC O1 in HD11 cells; experiment: Intracellular survival assay (cidal SMs); settings: O1, HD11, 6 h treatment; superscript = multiple of MIC
APEC O1-63 = format: cell-based, avian pathogenic Escherichia coli (APEC); settings: APEC O1-63, M63 media; MIC/MBC
APEC O78 [12] = format: cell-based, avian pathogenic Escherichia coli (APEC); settings: APEC O78, M63 media; cell prints MIC/MBC
[13] = tested on: intracellular APEC O2 in THP-1 cells; experiment: Intracellular survival assay (cidal SMs); settings: O2, THP-1, 6 h treatment; superscript = multiple of MIC
APEC O78-53 = format: cell-based, avian pathogenic Escherichia coli (APEC); settings: APEC O78-53, M63 media; MIC/MBC
[14] = tested on: intracellular APEC O78 in THP-1 cells; experiment: Intracellular survival assay (cidal SMs); settings: O78, THP-1, 6 h treatment; superscript = multiple of MIC

Compound: CC1CCC(C(C)C)C(OC(=O)Cn2c[n+](CC(=O)OC3CC(C)CCC3C(C)C)c3ccccc32)C1.[Cl-] (centres unmarked) [SM4]
- SMs intracellular APEC clearance concentration [1]: 50^b µM
- SMs intracellular APEC clearance concentration [2]: >100 µM
- SMs intracellular APEC clearance concentration [3]: 50^b µM
- MBC (APEC O2): 50 µM
- MIC (APEC O2): 25 µM
- MBC (APEC O18): 50 µM
- MIC (APEC O18): 25 µM
- MBC (APEC O15): 25 µM
- MIC (APEC O15): 25 µM
- SMs intracellular APEC clearance concentration [4]: 100^c µM
- Absorbance 260 (APEC O78 [5]; 260 nm absorbing material in supernatant): 3.91*
- Absorbance 280 (APEC O78 [5]; 280 nm absorbing material in supernatant): 2.69*
- MBC (APEC O2-211): 25 µM
- MIC (APEC O2-211): 25 µM
- cytological profile (confocal, FM4-64 / SYTO-9) (APEC O78 [6]): membrane disruptors
- MBC (APEC O109): 25 µM
- MIC (APEC O109): 25 µM
- SMs intracellular APEC clearance concentration [7]: 100^c µM
- MBC (APEC O115): 25 µM
- MIC (APEC O115): 25 µM
- effectiveness in clearing intracellular APEC serotypes in all tested cells [8]: most effective
- MBEC [9]: 25^a µM
- SMs intracellular APEC clearance concentration [10]: 50^b µM
- MBC (APEC O8): 25 µM
- MIC (APEC O8): 25 µM
- MBC (APEC O35): 25 µM
- MIC (APEC O35): 25 µM
- MBC (APEC O1): 50 µM
- MIC (APEC O1): 25 µM
- SMs intracellular APEC clearance concentration [11]: 50^b µM
- MBC (APEC O1-63): 50 µM
- MIC (APEC O1-63): 25 µM
- MBC (APEC O78 [12]): 50 µM
- MIC (APEC O78 [12]): 25 µM
- SMs intracellular APEC clearance concentration [13]: 100^c µM
- MBC (APEC O78-53): 50 µM
- MIC (APEC O78-53): 25 µM
- SMs intracellular APEC clearance concentration [14]: 56^b µM
